{
  "source": "ChEMBL document CHEMBL3132853",
  "about": "“Facile synthesis of a polyether-tethered dimeric berberine as a highly effective DNA-cleaving agent in the presence of Cu(ii) ion” (Medchemcomm, 2013)",
  "key": {"Escherichia coli [1]": {"tested_on": "Escherichia coli", "assay": "Induction of Escherichia coli pBR322 DNA cleavage at 0.06 mM after 5 hrs by agarose gel electrophoresis in presence of Cu2+ and TMP"}, "Escherichia coli [2]": {"tested_on": "Escherichia coli", "assay": "Induction of Escherichia coli pBR322 DNA cleavage assessed as conversion of supercoiled form into open circular form after 5 hrs by agarose gel electrophoresis in presence of Ni2+"}, "Escherichia coli [3]": {"tested_on": "Escherichia coli", "assay": "Induction of Escherichia coli pBR322 DNA cleavage at 0.06 mM after 5 hrs by agarose gel electrophoresis in presence of Cu2+ and t-BuOH"}, "DNA [4]": {"tested_on": "DNA", "assay": "Binding affinity to calf thymus DNA", "type": "nucleic-acid assay", "conditions": "Bos taurus"}, "Escherichia coli [5]": {"tested_on": "Escherichia coli", "assay": "Induction of Escherichia coli pBR322 DNA cleavage at 0.06 mM after 5 hrs by agarose gel electrophoresis in presence of Cu2+ and KI"}, "Escherichia coli [6]": {"tested_on": "Escherichia coli", "assay": "Induction of Escherichia coli pBR322 DNA cleavage assessed as maximal catalytic rate constant at 0.12 mM by agarose gel electrophoresis in presence of Cu2+"}, "Escherichia coli [7]": {"tested_on": "Escherichia coli", "assay": "Induction of Escherichia coli pBR322 DNA cleavage at 0.08 mM after 5 hrs by agarose gel electrophoresis"}, "Escherichia coli [8]": {"tested_on": "Escherichia coli", "assay": "Induction of Escherichia coli pBR322 DNA cleavage assessed as conversion of supercoiled form into linear form after 5 hrs by agarose gel electrophoresis in presence of Cu2+"}, "Escherichia coli [9]": {"tested_on": "Escherichia coli", "assay": "Induction of Escherichia coli pBR322 DNA cleavage at 0.01 to 0.08 mM after 5 hrs by agarose gel electrophoresis in presence of Cu2+"}, "Escherichia coli [10]": {"tested_on": "Escherichia coli", "assay": "Induction of Escherichia coli pBR322 DNA cleavage at Cu2+ to compound ratio >= 1 after 5 hrs by agarose gel electrophoresis"}, "DNA [11]": {"tested_on": "DNA", "assay": "Binding affinity to calf thymus DNA in presence of Cu2+", "type": "nucleic-acid assay", "conditions": "Bos taurus"}, "Escherichia coli [12]": {"tested_on": "Escherichia coli", "assay": "Induction of Escherichia coli pBR322 DNA cleavage assessed as conversion of supercoiled form into open circular form after 5 hrs by agarose gel electrophoresis in presence of Cu2+"}, "Escherichia coli [13]": {"tested_on": "Escherichia coli", "assay": "Induction of Escherichia coli pBR322 DNA cleavage at 0.06 mM after 5 hrs by agarose gel electrophoresis in presence of Cu2+ and DMSO"}, "Escherichia coli [14]": {"tested_on": "Escherichia coli", "assay": "Induction of Escherichia coli pBR322 DNA cleavage assessed as conversion of supercoiled form into open circular form after 5 hrs by agarose gel electrophoresis in presence of Zn2+"}, "Escherichia coli [15]": {"tested_on": "Escherichia coli", "assay": "Induction of Escherichia coli pBR322 DNA cleavage assessed as conversion of supercoiled form into open circular form after 5 hrs by agarose gel electrophoresis in presence of Co2+"}, "Escherichia coli [16]": {"tested_on": "Escherichia coli", "assay": "Induction of Escherichia coli pBR322 DNA cleavage assessed as conversion of supercoiled form into open circular form after 5 hrs by agarose gel electrophoresis in presence of Mn2+"}, "Escherichia coli [17]": {"tested_on": "Escherichia coli", "assay": "Induction of Escherichia coli pBR322 DNA cleavage assessed as conversion of supercoiled form into open circular form after 5 hrs by agarose gel electrophoresis in presence of Mg2+"}},
  "note": "Active and inactive are the calls of the source. No cut-off for these calls is given here.",
  "data": [
    {"compound": "COc1ccc2cc3[n+](cc2c1OCCOCCOCCOCCOc1c(OC)ccc2cc4[n+](cc12)CCc1cc2c(cc1-4)OCO2)CCc1cc2c(cc1-3)OCO2", "values": [
      {"measurement": "Activity", "setting": "Escherichia coli [1]", "result": "Active"},
      {"measurement": "Activity", "setting": "Escherichia coli [2]", "result": "inactive"},
      {"measurement": "Activity", "setting": "Escherichia coli [3]", "result": "Active"},
      {"measurement": "K", "setting": "DNA [4]", "result": 1.51, "unit": "×10⁴ /M"},
      {"measurement": "Activity", "setting": "Escherichia coli [5]", "result": "inactive"},
      {"measurement": "Kmax", "setting": "Escherichia coli [6]", "result": 125, "unit": "h⁻¹"},
      {"measurement": "Activity", "setting": "Escherichia coli [7]", "result": "inactive"},
      {"measurement": "Activity", "setting": "Escherichia coli [8]", "result": "Active"},
      {"measurement": "Activity", "setting": "Escherichia coli [9]", "result": "Active"},
      {"measurement": "Activity", "setting": "Escherichia coli [10]", "result": "Active"},
      {"measurement": "K", "setting": "DNA [11]", "result": 2.38, "unit": "×10⁴ /M"},
      {"measurement": "Activity", "setting": "Escherichia coli [12]", "result": "Active"},
      {"measurement": "Activity", "setting": "Escherichia coli [13]", "result": "Active"},
      {"measurement": "Activity", "setting": "Escherichia coli [14]", "result": "inactive"},
      {"measurement": "Activity", "setting": "Escherichia coli [15]", "result": "inactive"},
      {"measurement": "Activity", "setting": "Escherichia coli [16]", "result": "inactive"},
      {"measurement": "Activity", "setting": "Escherichia coli [17]", "result": "inactive"}
    ]},
    {"compound": "COc1ccc2cc3[n+](cc2c1OC)CCc1cc2c(cc1-3)OCO2", "values": [
      {"measurement": "K", "setting": "DNA [4]", "result": 8.99, "unit": "×10³ /M"}
    ]},
    {"compound": "COc1ccc2cc3[n+](cc2c1OCCCOc1c(OC)ccc2cc4[n+](cc12)CCc1cc2c(cc1-4)OCO2)CCc1cc2c(cc1-3)OCO2", "values": [
      {"measurement": "K", "setting": "DNA [4]", "result": 1.15, "unit": "×10⁵ /M"},
      {"measurement": "Activity", "setting": "Escherichia coli [12]", "result": "inactive"}
    ]},
    {"compound": "COCCOCCOCCOCCOc1c(OC)ccc2cc3[n+](cc12)CCc1cc2c(cc1-3)OCO2", "values": [
      {"measurement": "K", "setting": "DNA [4]", "result": 1.46, "unit": "×10³ /M"},
      {"measurement": "Activity", "setting": "Escherichia coli [12]", "result": "inactive"}
    ]}
  ]
}
